Experiment [1] addresses T1, HS α4β2 (α4(2)β2(3)) nAChR (Homo sapiens, UniProt P17787+P43681).
T1 construct: expressed in transfected cells; host or cells: Xenopus laevis oocytes injected with cRNA
The experiment can be described thus: Bath application of test compound: inhibition of ACh-evoked peak currents in Xenopus oocytes. Format: cell-based. As to conditions: 30 minutes in bath. On the procedure:
(§1) We have extended this approach to defined receptor subtypes expressed in Xenopus oocytes. Experiments were conducted on cells expressing HS α4β2 (α4(2)β2(3)), LS α4β2 (α4(3)β2(2)), or α7 nAChR.
(§2) cDNA: Human nAChR receptor clones and concatamers were obtained from Dr. Jon Lindstrom (University of Pennsylvania, Philadelphia Pa.). The human RIC-3 clone, obtained from Dr. Millet Treinin (Hebrew University, Jerusalem Israel), was co-injected with α7 to improve the levels and speed of receptor expression.
(§3) Oocyte preparation: Oocytes were surgically removed from mature Xenopus laevis frogs and injected with 50 nl (5-20 ng) of appropriate nAChR subunit cRNAs as described previously (Horenstein et al., 2008).
(§4) Experiments were conducted using OpusXpress 6000A (Molecular Devices, Union City Calif.) and analyzed as described previously (Papke and Papke, 2002; Horenstein et al., 2008; Papke and Stokes, 2010).
(§5) Initial experiments were run for 50 minutes after the introduction of the experimental compounds into the bath.

Experiment [2] addresses T2, LS α4β2 (α4(3)β2(2)) nAChR (Homo sapiens, UniProt P17787+P43681).
T2 construct: expressed in transfected cells; host or cells: Xenopus laevis oocytes injected with cRNA
The description is as above. As to conditions: 30 minutes in bath. The experiment is classed as cell-based. As to the method:
as §1, §2, §3, §4, §5

Experiment [3] concerns the target T3, α7 nAChR (Homo sapiens, UniProt P36544).
T3 construct: expressed in transfected cells; host or cells: Xenopus laevis oocytes injected with cRNA
The experiment is described as follows: Bath application of test compound: modulation of ACh-evoked net charge responses in Xenopus oocytes. The experiment is classed as cell-based. Conditions: 30 minutes in bath. On the procedure:
as §1, §2, §3, §4, §5

The next experiment addresses T4, α4(2)β2(2)α5 nAChR (Homo sapiens, UniProt P17787+P30532+P43681).
T4 construct: expressed in transfected cells; host or cells: Xenopus laevis oocytes injected with cRNA
The experiment can be described thus: Bath application of test compound: inhibition of ACh-evoked responses in Xenopus oocytes. Conditions: 30 minutes in bath. Format: cell-based. On the procedure:
as §2, §3, §4, §5
Recently, attention has been drawn to α5 as a member of a gene cluster associated with high risk for cancer and heavy smoking (Saccone et al., 2007). In the periphery, α5 is most likely expressed in association with the other members of its gene cluster, α3 and β4.

The next experiment has as its target T5, α4(2)β2(3) nAChR (Homo sapiens, UniProt P17787+P43681).
T5 construct: expressed in transfected cells; host or cells: Xenopus laevis oocytes injected with cRNA
The experiment can be described thus: Bupropion co-applied with ACh: inhibition of ACh-evoked responses, oocytes. The experiment is classed as cell-based. As to conditions: co-applied with 10 μM ACh. On the procedure:
as §5

A further experiment deals with T6, α4(3)β2(2) nAChR (Homo sapiens, UniProt P17787+P43681).
T6 construct: expressed in transfected cells; host or cells: Xenopus laevis oocytes injected with cRNA
The experiment is described as above. Format: cell-based. As to conditions: co-applied with 30 μM ACh. As to the method: as §5

The target in experiment [4] is T3, α7 nAChR. Described as above. The experiment is classed as cell-based. As to the method: as §5
The next experiment deals with T7, α4β2α5 nAChR (Homo sapiens, UniProt P17787+P30532+P43681).
T7 construct: expressed in transfected cells; host or cells: Xenopus laevis oocytes injected with cRNA
Described as above. Format: cell-based. As to conditions: co-applied with 3 μM ACh.

Experiment [5] concerns α4(3)β2(2), α4(2)β2(3), α4(2)β2(2)α5 and α7 nAChR. The experiment is described as follows: Test of bupropion for receptor activation, oocytes. Format: cell-based, human. As to conditions: 300 nM to 300 μM.

By IC50 is commonly meant the concentration that inhibits the measured activity by half.

T3 sequence (P36544 23-502): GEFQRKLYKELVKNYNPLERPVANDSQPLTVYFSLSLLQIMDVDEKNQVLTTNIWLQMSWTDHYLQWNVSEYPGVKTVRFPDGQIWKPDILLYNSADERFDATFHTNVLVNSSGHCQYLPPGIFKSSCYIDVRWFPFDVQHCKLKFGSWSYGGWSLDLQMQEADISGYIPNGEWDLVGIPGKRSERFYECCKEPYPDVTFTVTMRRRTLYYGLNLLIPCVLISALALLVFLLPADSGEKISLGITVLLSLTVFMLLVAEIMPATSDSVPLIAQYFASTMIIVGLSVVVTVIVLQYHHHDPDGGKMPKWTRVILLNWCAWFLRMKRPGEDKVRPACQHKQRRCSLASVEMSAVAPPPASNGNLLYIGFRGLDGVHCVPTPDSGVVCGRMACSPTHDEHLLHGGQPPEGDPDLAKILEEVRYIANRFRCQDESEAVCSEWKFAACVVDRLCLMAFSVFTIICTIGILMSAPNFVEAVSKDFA
T4 sequence (P17787 26-502): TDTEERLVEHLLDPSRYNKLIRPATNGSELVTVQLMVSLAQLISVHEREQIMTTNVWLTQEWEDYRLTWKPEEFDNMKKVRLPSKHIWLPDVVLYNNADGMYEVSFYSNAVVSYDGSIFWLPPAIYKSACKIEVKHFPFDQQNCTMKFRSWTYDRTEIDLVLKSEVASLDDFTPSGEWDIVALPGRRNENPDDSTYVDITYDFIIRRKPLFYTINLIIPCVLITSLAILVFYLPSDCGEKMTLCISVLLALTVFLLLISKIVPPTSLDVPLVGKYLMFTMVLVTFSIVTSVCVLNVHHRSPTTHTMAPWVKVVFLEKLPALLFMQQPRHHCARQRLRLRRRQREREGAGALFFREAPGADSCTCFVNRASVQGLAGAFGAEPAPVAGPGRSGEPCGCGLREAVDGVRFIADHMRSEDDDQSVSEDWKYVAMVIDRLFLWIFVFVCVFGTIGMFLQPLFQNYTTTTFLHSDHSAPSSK
T4 sequence (P43681 29-627 limits assumed): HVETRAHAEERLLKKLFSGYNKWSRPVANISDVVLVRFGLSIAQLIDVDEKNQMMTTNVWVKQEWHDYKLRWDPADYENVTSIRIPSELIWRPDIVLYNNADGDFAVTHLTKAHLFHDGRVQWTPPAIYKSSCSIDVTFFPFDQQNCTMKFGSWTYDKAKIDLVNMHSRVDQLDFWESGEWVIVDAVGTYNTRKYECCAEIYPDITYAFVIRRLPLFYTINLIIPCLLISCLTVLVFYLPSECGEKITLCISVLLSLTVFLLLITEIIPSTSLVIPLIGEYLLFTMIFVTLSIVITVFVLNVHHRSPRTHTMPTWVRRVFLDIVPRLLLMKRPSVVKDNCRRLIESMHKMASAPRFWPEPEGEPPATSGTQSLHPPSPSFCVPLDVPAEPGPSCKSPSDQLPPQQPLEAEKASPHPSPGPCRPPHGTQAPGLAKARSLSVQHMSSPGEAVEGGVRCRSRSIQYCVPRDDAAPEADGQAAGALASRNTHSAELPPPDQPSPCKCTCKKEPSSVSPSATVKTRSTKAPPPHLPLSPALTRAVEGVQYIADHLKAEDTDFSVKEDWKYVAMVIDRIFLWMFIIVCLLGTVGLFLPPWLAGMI
T4 sequence (P30532 23-468): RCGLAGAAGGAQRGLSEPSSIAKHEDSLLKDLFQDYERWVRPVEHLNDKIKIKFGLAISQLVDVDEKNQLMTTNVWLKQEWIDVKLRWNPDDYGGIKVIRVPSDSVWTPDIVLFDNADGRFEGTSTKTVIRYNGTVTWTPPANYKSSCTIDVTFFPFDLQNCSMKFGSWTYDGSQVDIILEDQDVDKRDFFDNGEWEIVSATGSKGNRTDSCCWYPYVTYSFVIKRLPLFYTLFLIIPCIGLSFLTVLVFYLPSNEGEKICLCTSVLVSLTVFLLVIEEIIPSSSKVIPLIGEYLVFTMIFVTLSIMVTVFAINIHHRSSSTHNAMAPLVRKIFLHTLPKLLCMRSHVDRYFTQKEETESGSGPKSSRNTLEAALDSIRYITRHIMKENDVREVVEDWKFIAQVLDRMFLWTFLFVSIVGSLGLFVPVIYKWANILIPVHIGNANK
T6 sequence (P17787 26-502): as the sequence (P17787 26-502) above
T6 sequence (P43681 29-627 limits assumed): as the sequence (P43681 29-627 limits assumed) above
T6 sequence (P43681 29-627 limits assumed): as above
T1 sequence (P17787 26-502): as the sequence (P17787 26-502) above
T1 sequence (P43681 29-627 limits assumed): as the sequence (P43681 29-627 limits assumed) above
T1 sequence (P17787 26-502): as the sequence (P17787 26-502) above
T2 sequence (P17787 26-502): as above
T2 sequence (P43681 29-627 limits assumed): as the sequence (P43681 29-627 limits assumed) above
T2 sequence (P43681 29-627 limits assumed): as above
T7 sequence (P17787 26-502): as the sequence (P17787 26-502) above
T7 sequence (P43681 29-627 limits assumed): as the sequence (P43681 29-627 limits assumed) above
T7 sequence (P30532 23-468): as the sequence (P30532 23-468) above
T5 sequence (P17787 26-502): as the sequence (P17787 26-502) above
T5 sequence (P43681 29-627 limits assumed): as the sequence (P43681 29-627 limits assumed) above
T5 sequence (P17787 26-502): as the sequence (P17787 26-502) above

Consider `CC(NC(C)(C)C)C(=O)c1cccc(Cl)c1` (centres unmarked) [bupropion], for which the “Bath application n (Hill slope of inhibition)” value in [1] was −0.40 ± 0.10; in experiment [2], −1.2 ± 0.4; on α7 nAChR [3], −1.5 ± 0.5; on α4(2)β2(2)α5 nAChR, −0.47 ± 0.09. The IC50 turned out to be 16 ± 3 µM on α7 nAChR [3] (read-out: Bath application IC50) and 46 ± 7 µM at α7 nAChR [4] (read-out: Co-application IC50). Moreover, the “Co-application n (Hill slope of inhibition)” value is reported as −0.80 ± 0.05 on α4(2)β2(3) nAChR, −0.93 ± 0.11 at α4(3)β2(2) nAChR, −0.74 ± 0.09 on α7 nAChR [4] (co-applied with 60 μM ACh) and −0.70 ± 0.04 at α4β2α5 nAChR. For the same compound, the “receptor activation by bupropion” value in experiment [5] is “no activation above our level of detection”.

For the origin of these results see patent US9233109B2, “Compositions, methods of use, and methods of treatment” (UNIVERSITY OF FLORIDA RESEARCH FOUNDATION, INC., priority 2010, dated 2016).
